The target of assay [1] is T1, β3 (Rattus norvegicus, UniProt P26255).
T1 construct: determined by their activity to stimulate adipocyte lipolysis; from tissue; host or cells: adipocytes isolated with collagenase from rat epididymal fat pads
Put plainly: β3 agonisitic activity in rats (stimulation of adipocyte lipolysis, rat epididymal fat pads). The assay is classed as cell-based. The settings on record: rat adipocytes, 37° C., 120 minutes; EC50 relative to compound's own maximum rate of lipolysis; hydrochloride; read-out: Lipolysis Molar EC50 value. The procedure: β3 agonisitic activity in rats
The β3 agonisitic effect of the compounds of the present invention was determined by their activity to stimulate adipocyte lipolysis. Rat epididymal fat pads were excised and placed in a buffer containing the following composition: 130 mM sodium chloride, 4.7 mM potassium chloride, 1.25 mM magnesium sulfate, 2.8 mM calcium chloride, 10 mM HEPES, 2.5 mM sodium dihydrogenphosphate, 1 g/l glucose and 1% fatty acid-free serum albumin (pH 7.6). All the following procedures were carried out in the above-mentioned buffer. 5 g of a tissue was transferred to a plastic bottle with 10 ml of the buffer solution in which 0.1% collagenase (available from Worthington Biochemical corporation) was added.
The tissue was incubated at 37° C. for about 75 minutes with gentle shaking. After the cell suspension was filtered through nylon meshes (No. 100), the cells were washed three times with two volumes of the buffer, and it was again filtered through nylon meshes. The volume was adjusted with the buffer so that the adipocyte was brought to 20% volume. A 0.1 ml aliquot of the cell suspension was added to plastic test tubes with 0.3 ml of the buffer containing vehicle or compound. The cells were incubated at 37° C. for 120 minutes with gentle shaking. The reaction solution (0.3 ml) was transferred to a centrifuge tube with […] of silicone oil (specific gravity 0.96, available from Shinetsu Chemical Industry), centrifuged at 18,500×g for one minute, and the reaction was stopped by removing the adipocyte from the buffer.
The amount of glycerol generated from the hydrolysis of triglycerides in the buffer was determined by a method using glycerol-3-phosphate oxidase/p-chlorophenol. […] of the buffer was added to a 96-well plate which contained 0.2 ml of an assay mixture having the following composition: 50 mM Tris (pH 7.5), 5.4 mM p-chlorophenol, 250 mg/ml adenosine-5'-triphosphate disodium, 150 mg 4-aminoantipyrine, 250 U/l glycerol kinase, 500 U/l glycerol-3-phosphate oxidase, 1250 U/l horseradish peroxidase. The plate was incubated at 37° C. for 15 minutes, and then an absorbance at 505 nm was determined. The molar EC50 value is the molar concentration of compound that gives 50% of that compound's own maximum rate of lipolysis.

Another assay addresses T2, human β3 receptor (Homo sapiens, UniProt P13945).
T2 construct: The human neuroblastoma cells (SK-N-MC) was available from American Type Culture Collection (HTB 10); host or cells: SK-N-MC human neuroblastoma cells
Put plainly: β3 agonistic activity on human β3 receptor (cAMP production in SK-N-MC human neuroblastoma cells). It counts as cell-based. The settings on record: 0.5 h, 10^-6 M, 37° C., 30 minutes, vs maximum of isopreterenol at 10^-6 M, hydrochloride, read-out: Ability of cAMP production at 10^-6 M, % (vs. Isopreterenol (ISP)). The procedure: β3 agonistic activity on human β3 receptor
The β3 agonistic activity of the compounds was determined by their abilities to stimulate the intracellular cAMP production of human neuroblast. The human neuroblastoma cells (SK-N-MC) was available from American Type Culture Collection (HTB 10), and the cells were cultured under the atmosphere of 5% CO2 at 37° C. on a 12-well plate in Dulbeccos' modified Eagle's medium containig 10% fetal calf serum. The SK-N-MC cells on reaching semi-confluence were washed twice with 1 ml of Hank's balanced salt solution (HBSS). After the cells were treated with 0.8 ml of HBSS containing 0.25 mM isobutylmethyl-xanthine at room temperature for 5 minutes, 0.1 ml of a test solution was added. Further, after incubation at 37° C. for 30 minutes, the reaction solution was aspirated, and washed twice with 2 ml of an ice-cooled phosphate-buffered saline (PBS). The cells were disrupted with 5 mM Tris buffer (pH 7.4) containing 2 mM EDTA, centrifuged at 18,500×g for one minute, and cAMP concentration in the supernatant was determined by EIA kit (available from Amersham). The ability of cAMP production was determined as a percentage of the compound to maximum activity of cAMP production of isopreterenol at 10^-6 M concentration (Proc. Natl. Acad. Sci. USA, 90, 3665, 1993).
In general terms: Cyclic AMP is a second messenger, typically raised through Gs and lowered through Gi signalling.

The subject of assay [2] is male KKAy mice with hyperglycemia. In words: Anti-hyperglycemic activity in male KKAy mice. The assay is classed as in vivo, mouse. The settings on record: 1 mg/kg, orally for 4 days, measured on 5th day; hydrochloride. The procedure:
The anti-hyperglycemic effect of the present compounds was determined using male KKAy mice with hyperglycemia of 300 mg/dl or more. The compound was orally administrated successively to the hyperglycemic mice for 4 days, and the blood glucose level was measured on the 5th day. The activity of the compounds was compared in terms of percent reduction in blood glucose level (a percentage of the blood glucose level after administration to that before administration). The measurement of blood glucose level was made by the method in which tail vein of mice was dissected with a scalpel and the blood was dropped onto an electrode of glucose sensor (Touekou Super, available from Kodama).

Assay [3] relates to animal models of type II diabetes. The settings on record: in vivo; cited from earlier work.
The conditions of assay [4]: in vivo; cited from earlier work.
Assay [5] addresses T1, β3. The settings on record: Nature, Vol. 309, 163, 1984; cited from earlier work.
Assay [6] concerns β3. The settings on record: cited from earlier work.
Another assay relates to β1 or β2. The settings on record: thought to cause side-effects; cited from earlier work.

Where a name gives a salt, the structure may show the parent alone.

For orientation: EC50 means the concentration at which the effect is half-maximal.

T2 sequence (P13945 whole entry): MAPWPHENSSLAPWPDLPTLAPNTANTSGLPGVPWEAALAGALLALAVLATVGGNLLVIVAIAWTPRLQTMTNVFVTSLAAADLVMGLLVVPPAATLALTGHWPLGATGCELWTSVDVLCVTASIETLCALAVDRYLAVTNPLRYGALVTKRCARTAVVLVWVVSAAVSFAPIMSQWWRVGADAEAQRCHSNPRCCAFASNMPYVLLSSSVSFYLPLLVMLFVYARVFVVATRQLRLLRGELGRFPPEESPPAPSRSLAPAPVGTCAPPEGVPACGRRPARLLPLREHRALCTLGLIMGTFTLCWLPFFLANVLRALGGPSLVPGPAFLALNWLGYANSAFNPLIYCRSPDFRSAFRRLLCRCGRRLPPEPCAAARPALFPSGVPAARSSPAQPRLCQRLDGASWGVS
T1 sequence (P26255 whole entry): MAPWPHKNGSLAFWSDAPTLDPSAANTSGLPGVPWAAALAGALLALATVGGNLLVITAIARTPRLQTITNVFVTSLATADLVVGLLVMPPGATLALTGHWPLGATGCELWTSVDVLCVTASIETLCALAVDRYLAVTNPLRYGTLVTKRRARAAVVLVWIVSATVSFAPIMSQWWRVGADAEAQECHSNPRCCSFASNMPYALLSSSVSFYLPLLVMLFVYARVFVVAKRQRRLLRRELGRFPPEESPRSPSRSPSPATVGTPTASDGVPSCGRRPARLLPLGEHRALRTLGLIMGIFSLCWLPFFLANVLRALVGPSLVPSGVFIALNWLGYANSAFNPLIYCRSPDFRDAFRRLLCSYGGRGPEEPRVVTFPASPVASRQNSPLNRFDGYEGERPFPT

As to `COC(=O)C1COc2cc(CC(C)NCC(O)c3ccc(F)cc3)ccc2O1` (stereo not drawn) [Example 12, 6-{2-[2-Hydroxy-2-(4-fluorophenyl)ethyl]amino}propyl-2,3-dihydro-1,4-benzodioxin-2-carboxylic acid methyl ester], the half-maximal effective concentration (EC50) at β3 [1] amounted to 26 nM. Further, the Emax at 1 µM at human β3 receptor amounted to 29%.

On to `CCOC(=O)C1COc2ccc(CC(C)NCC(O)c3ccccc3)cc2O1` (stereo not drawn) [Example 4, 7-[2-(2-Hydroxy-2-phenylethyl)amino]propyl-2,3-dihydro-1,4-benzodioxin-2-carboxylic acid ethyl ester], for which the EC50 at β3 [1] came out at 56 nM.

With `CCOC(=O)[C@H]1COc2cc(C[C@@H](C)NC[C@H](O)c3cccc(Cl)c3)ccc2O1` [Example 28, (2R,2'R,2"R)-6-{2-[2-(3-Chlorophenyl)-2-hydroxyethyl]amino}propyl-2,3-dihydro-1,4-benzodioxin-2-carboxylic acid ethyl ester hydrochloride], on β3 [1], the EC50 turned out to be 0.1 nM. In assay [2], the “Percent reduction in blood glucose level, %” value (“Percent reduction … %” for short) came out at 42%.

Turning to `COC(=O)C1COc2cc(CC(C)NCC(O)c3cccc(Cl)c3)ccc2O1` (stereo not drawn) [Example 10, 6-{2-[2-(3-Chlorophenyl)-2-hydroxyethyl]amino}propyl-2,3-dihydro-1,4-benzodioxin-2-carboxylic acid methyl ester], the Emax at 1 µM at human β3 receptor worked out at 43%. In assay [2], the “Percent reduction … %” value stood at 48%.

With `CCOC(=O)C1COc2cc(CC(C)NCC(O)c3ccccc3)ccc2O1` (stereo not drawn) [Example 3, 6-[2-(2-Hydroxy-2-phenylethyl)amino]propyl-2,3-dihydro-1,4-benzodioxin-2-carboxylic acid ethyl ester], the concentration giving a half-maximal response (EC50) on β3 [1] was 9 nM. In addition, the “Percent reduction … %” value in assay [2] is 63%.

For the compound `C[C@H](Cc1ccc(OCC(=O)O)cc1)NC[C@H](O)c1cccc(Cl)c1` (relative stereo) [BRL 37344], the “anti-hyperglycemic activity, in words” value in assay [3] is reported as “anti-hyperglycemic activity”. Moreover, the “anti-obesity activity, in words” value in assay [4] is recorded as “anti-obesity activity”.

Regarding `COC(=O)C1COc2cc(CC(C)NCC(O)c3cccc(C(F)(F)F)c3)ccc2O1` (stereo not drawn) [Example 11, 6-{2-[2-Hydroxy-2-(3-trifluoromethylphenyl)ethyl]amino}propyl-2,3-dihydro-1,4-benzodioxin-2-carboxylic acid methyl ester], the concentration for a half-maximal effect (EC50) at β3 [1] turned out to be 2.4 nM.

As for `CCOC(=O)[C@@H]1COc2cc(C[C@H](C)NC[C@H](O)c3cccc(Cl)c3)ccc2O1` [Example 31, (2S,2'S,2"R)-6-{2-[2-(3-Chlorophenyl)-2-hydroxyethyl]amino}propyl-2,3-dihydro-1,4-benzodioxin-2-carboxylic acid ethyl ester], the EC50 at β3 [1] was 100 nM.

`CCOC(=O)[C@H]1COc2cc(C[C@H](C)NC[C@H](O)c3cccc(Cl)c3)ccc2O1` [Example 29, (2R,2'S,2"R)-6-{2-[2-(3-Chlorophenyl)-2-hydroxyethyl]amino}propyl-2,3-dihydro-1,4-benzodioxin-2-carboxylic acid ethyl ester]: the EC50 at β3 [1] amounted to 1.7 nM. In addition, the “Percent reduction … %” value in assay [2] is listed as 54%.

In the case of `CCOC(=O)[C@@H]1COc2cc(C[C@@H](C)NC[C@H](O)c3cccc(Cl)c3)ccc2O1` [Example 30, (2S,2'R,2"R)-6-{2-[2-(3-Chlorophenyl)-2-hydroxyethyl]amino}propyl-2,3-dihydro-1,4-benzodioxin-2-carboxylic acid ethyl ester], the EC50 on β3 [1] was 16 nM.

On to `COC(=O)COc1ccc(C[C@@H](C)NC[C@H](O)c2cccc(Cl)c2)cc1` (relative stereo) [BRL 35135], for which, at β3 [5], the “lipolytic activity (β3) in rats, in words” value is “lipolytic activity (β3) in rats”. Also, the “β3 agonistic activity, in words” value with β3 [6] is on record as “has β3 agonistic activity”. Also, the “β1 or β2 agonistic activity, in words” value in the assay on β1 or β2 is recorded as “has β1 or β2 agonistic activity”. For the same compound, the “anti-hyperglycemic activity, in words” value in assay [3] is on record as “anti-hyperglycemic activity”. Further, the “anti-obesity activity, in words” value in assay [4] is “anti-obesity activity”.

With `COC(=O)C1COc2cc(CC(C)NCC(O)c3cccc(C)c3)ccc2O1` (stereo not drawn) [Example 2, 6-{2-[2-Hydroxy-2-(3-tolyl)ethyl]amino}propyl-2,3-dihydro-1,4-benzodioxin-2-carboxylic acid methyl ester], the half-maximal effective concentration (EC50) at β3 [1] was 4 nM. Further, the Emax at 1 µM on human β3 receptor was 25%.

As to `COC(=O)C1COc2cc(CC(C)NCC(O)c3ccc4c(c3)OCO4)ccc2O1` (stereo not drawn) [Example 5, 6-[2-(2-Hydroxy-2-piperonylethyl)amino]propyl-2,3-dihydro-1,4-benzodioxin-2-carboxylic acid methyl ester], the EC50 on β3 [1] was determined as 100 nM.

Regarding `COC(=O)C1COc2cc(CC(C)NCC(O)c3cccc(OC)c3)ccc2O1` (stereo not drawn) [Example 1, 6-{2-[2-Hydroxy-2-(3-methoxyphenyl)ethyl]amino}propyl-2,3-dihydro-1,4-benzodioxin-2-carboxylic acid methyl ester], the concentration giving a half-maximal response (EC50) on β3 [1] was determined as 46 nM. Also, the Emax at 1 µM at human β3 receptor came to 21%. In addition, the “Percent reduction … %” value in assay [2] came to 53%.

The values are drawn from patent publication US6130243A, “1,4-benzodioxin derivatives” (Nisshin Flour Milling Co., Ltd., priority 1995, dated 2000).
